In the SangsterLogP compilation:

Test: method code SF, from DOI: 10.1002/jps.2600650919, PMID: 966149
Details: pH 7.4

Compound | logD
CCOC(=O)C1CC2=CC(=O)CCC2(C)C2CCC3(C)C(C4CCC(=O)O4)CCC3C12 (stereo not given) | 2.54
CC12CCC(=O)C=C1C1(CC1)CC1C2CCC2(C)C1CCC21CCC(=O)O1 (stereo not given) | 3.15
CC12CCC(=O)C=C1CCC1C3CCC4(CCC(=O)O4)C3(C)CC3OC312 (stereo not given) | 1.96
CC(C)OC(=O)C1CC2=CC(=O)CCC2(C)C2CCC3(C)C(C4CCC(=O)O4)CCC3C12 (stereo not given) | 2.82
CC12CCC(=O)C=C1CCC1C3CCC4(CCC(=O)O4)C3(C)CC(O)C12F (stereo not given) | 2.4

Other lines, results leading:

logD | Compound
2.68 | CC12CCC(=O)C=C1C=CC1C2CCC2(C)C1CCC21CCC(=O)O1 (stereo not given)
1.67 | CC12CCC(=O)C=C1CC(C#N)C1C2CCC2(C)C1CCC21CCC(=O)O1 (stereo not given)
2.78 | CC(=O)SC1CC2=CC(=O)CCC2(C)C2CCC3(C)C(CCC34CCC(=O)O4)C12 (stereo not given)
3.08 | CC12CCC(=O)C=C1C1CC1C1C2CCC2(C)C1CCC21CCC(=O)O1 (stereo not given)
2.18 | COC(=O)C1CC2=CC(=O)CCC2(C)C2CCC3(C)C(CCC34CCC(=O)O4)C12 (stereo not given)
